Measured values taken from EP0041047A2, “Dioxide compounds, process for their preparation and their use” (CIBA-GEIGY AG, priority 1980, dated 1981).

What was measured:
[1] = system: Escherichia coli 205 R^+ TEM; assay: Protection of infected mice, subcutaneous application (ED50); assay type: in vivo, Maus
Source text: (§1) Aufgrund dieser ß-Lactamase-inhibierenden Wirkung erhöhen die Verbindungen der vorliegenden Erfindung die Wirkung von β-Lactamantibiotika in vitro und in vivo, wie durch Vergleich der antibiotischen Wirkungen von Verbindungen der vorliegenden Erfindung und von β-Lactamantibiotika allein und in Kombination miteinander festgestellt werden kann. Beispielsweise liegen in vitro die MIC-Werte von 1:1 Kombinationen der erfindungsgemässen Verbindung der Formel (I), worin R1 Hydroxy und R2 Carboxy bedeuten, oder des Natriumsalzes davon mit Ampicillin, Cefsulodin (CGP7174/E) oder Cefotiam (CGP14221/E) gegen eine Reihe der obengenannten ß-Lactamase produzierenden Mikroorganismen signifikant niedriger als die MIC-Werte der Einzelverbindungen. In vivo, beispielsweise bei subcutaner Applikation an Mäusen, die mit ß-Lactamase produzierenden Mikroorganismen infiziert wurden, z.B. mit Escherichia coli 205 R^+ TEM oder Morganella morganii 2359, wurde eine signifikante Erniedrigung der ED50-Werte gegenüber denjenigen der Einzelkomponenten festgestellt. Einige Werte sind in der folgenden Tabelle zusammengestellt: […]

Morganella morganii 2359 = assay: as above; assay type: in vivo; conditions: infecting microorganism Morganella morg. 2359
Source text: as §1

Compound	ED50 ([1]; Escherichia coli, sc, read-out: s.c. ED50 (mg/kg, Maus)) [mg/kg]	ED50 (Morganella morganii 2359; Morganella morganii, sc, Maus) [mg/kg]	s.c. ED50 (mg/kg, Maus) ([1]; Maus, s.c., infecting microorganism Esch.coli: 205 RT) [mg/kg]	s.c. ED50 (mg/kg, Maus) (Morganella morganii 2359) [mg/kg]
CN(C)CCn1nnnc1SCC1=C(C(=O)O)N2C(=O)[C@@H](NC(=O)Cc3csc(N)n3)[C@H]2SC1 [B, Cefotiam]	70	75	–	–
(3R, 5R, 6R)-2,2-Dimethyl-6-hydroxymethylpenam-3-carbonsäure-1,1-dioxid-natriumsalz	–	–	100	100
